Assay results: article PMC8315004, “Discovery of Small-Molecule Inhibitors of SARS-CoV-2 Proteins Using a Computational and Experimental Pipeline” (Frontiers in Molecular Biosciences, 2021)
Values joined by “and” are separate entries in the source; they are usually repeats but may differ in a detail not shown here. Equal values may be shown once. Read-outs that look alike come from different tables or passages of the source.

Experiments:
in vitro = settings: African green monkey
SARS-CoV-2 M^pro [1] = target: T1, SARS-CoV-2 M^pro (Severe acute respiratory syndrome coronavirus 2, UniProt P0DTD1); test: biochemical; set-up: inhibition: dose or concentration left out as unconfirmed; settings: for IC50: normalized FRET data, technical duplicates, end-point about 4 h, read-out: IC50 against Mpro, FRET values; for inhibition of the activity of Mpro in secondary screen: re-screen at 100 μM
[2] = tested on: SARS-CoV-2 expressing the mNeon reporter gene; test: microbe, parasite or virus in culture; assay type: cell-based; settings: read-out: IC50 against SARS-CoV-2
[3] = target: ACE2-RBD binding (SARS-CoV-2 RBD / human ACE2-Fc) (Severe acute respiratory syndrome coronavirus 2, UniProt P0DTC2); test: biochemical; settings: for RMAX of ACE2-RBD binding: RBD pre-treated with 50 μM compound, DMSO only 0.3044; for ACE2-RBD binding versus inhibitor concentration (in words): RBD pre-treated with increasing concentrations; for inhibition at 50 µM: pre-treatment with 50 μM compound, from Rmax with vs without compound
Mpro [4] = settings: slightly shorter fluorogenic substrate; ref Li et al., 2020; read-out: IC50 as Mpro inhibitor (literature); cited from earlier work
SARS-CoV-2 M^pro [5] = target: T1, SARS-CoV-2 M^pro; test: Mpro substrate cleavage by gel electrophoresis (SDS-PAGE) and densitometry; assay type: biochemical; settings: normalized gel densitometry data (red values of Figure 2D); read-out: IC50 against Mpro, gel electrophoresis and densitometry
Mpro [6] = settings: cited from earlier work
VSV-SARS2 = test: microbe, parasite or virus in culture; assay type: cell-based; settings: for inhibition at 10 µM: read-out: inhibition of VSV-SARS2 infection (efficacy); for IC50: read-out: IC50 against VSV-SARS2
[7] = initial screen, Table S4, read-out: Normalized Percent FRET inhibition
[8] = Severe acute respiratory syndrome coronavirus 2, Vero, 18 h
[9] = Vesicular stomatitis virus, Vero
[10] = initial screen, 100 μM of drug, Table S4

Question: Which results are given for `COc1ccc(-c2ccc3cc(C(=O)O)ccc3c2)cc1C12CC3CC(CC(C3)C1)C2` [Adapalene]?
Answer: CC50 (in vitro): 60.7 µM; inhibition (SARS-CoV-2 M^pro [1]; [7]): 0.236%; IC50 [2, 8]: ~10 µM; IC50 [2]: 9.6 µM; RMAX of ACE2-RBD binding [3]: 0.2322; ACE2-RBD binding versus inhibitor concentration (in words) [3]: concentration-dependent decrease; inhibition at 50 µM [3]: 23.8%

Question: Which IC50 (Mpro [4]) does the source give for `CCOc1nc2cccc(C(=O)OC(C)OC(=O)OC3CCCCC3)c2n1Cc1ccc(-c2ccccc2-c2nnn[nH]2)cc1` (centres unmarked) [Candesartan Cilexetil] here?
Answer: 2.8 µM

Question: What about the CC50 (in vitro) of the same compound?
Answer: > 100 µM

Question: And the IC50 (SARS-CoV-2 M^pro [5])?
Answer: 77.1 µM

Question: And the inhibition (SARS-CoV-2 M^pro [1]; [7])?
Answer: 153%

Question: And the IC50 (SARS-CoV-2 M^pro [1])?
Answer: ~67 µM and 67.4 µM

Question: And the “inhibition of the activity of Mpro in secondary screen” value (“inhibition of the activity of Mpro” for short) (SARS-CoV-2 M^pro [1])?
Answer: completely inhibit

Question: What about the IC50 [2, 8] of the same compound?
Answer: ~10 µM

Question: What about the IC50 [2] of the same compound?
Answer: 10.4 µM

Question: Which inhibition at 100 µM (SARS-CoV-2 M^pro [1]; read-out: Normalized Percent FRET inhibition) does the source give for `O=c1c2ccccc2[se]n1-c1ccccc1` [Ebselen] here?
Answer: 117%

Question: And the “Mpro inhibitor potency (literature, in words)” value (Mpro [6])?
Answer: low micromolar

Question: With `Cc1cc2nc3c(=O)[nH]c(=O)nc-3n(C[C@H](O)[C@H](O)[C@H](O)COP(=O)(O)OP(=O)(O)OC[C@H]3O[C@@H](n4cnc5c(N)ncnc54)[C@H](O)[C@@H]3O)c2cc1C` [Flavin Adenine Dinucleotide Disodium] as the compound, how does the IC50 (SARS-CoV-2 M^pro [5]) read?
Answer: > 100 µM

Question: And the inhibition (SARS-CoV-2 M^pro [1]; [7])?
Answer: 149%

Question: And the IC50 (SARS-CoV-2 M^pro [1])?
Answer: 42.5 µM

Question: And the “inhibition of the activity of Mpro” value (SARS-CoV-2 M^pro [1])?
Answer: completely inhibit

Question: Which “RMAX of ACE2-RBD binding” value [3] does the source give for `C#C[C@]1(O)CC[C@H]2[C@@H]3CCC4=CC(=O)CCC4=C3C=C[C@@]21CC` [Gestrinone] here?
Answer: 0.2366

Question: And the “ACE2-RBD binding versus inhibitor concentration (in words)” value [3]?
Answer: concentration-dependent decrease

Question: What about the inhibition at 50 µM [3] of the same compound?
Answer: 22%

Question: For `C#Cc1cccc(Nc2ncnc3cc4c(cc23)OCCOCCOCCO4)c1` [Icotinib], which inhibition (SARS-CoV-2 M^pro [1]; [7]) is on record?
Answer: -0.628%

Question: And the “RMAX of ACE2-RBD binding” value [3]?
Answer: 0.2406

Question: What about the “ACE2-RBD binding versus inhibitor concentration (in words)” value [3] of the same compound?
Answer: concentration-dependent decrease

Question: And the inhibition at 50 µM [3]?
Answer: 21%

Question: With `Cc1ccc(NC(=O)c2ccc(CN3CCN(C)CC3)cc2)cc1Nc1nccc(-c2cccnc2)n1` [Imatinib] as the compound, how does the inhibition at 10 µM (VSV-SARS2; [9]) read?
Answer: ≥ 50%

Question: What does the source list for `CS(=O)(=O)CCNCc1ccc(-c2ccc3ncnc(Nc4ccc(OCc5cccc(F)c5)c(Cl)c4)c3c2)o1` [Lapatinib]?
Answer: CC50 (in vitro): 69.6 µM; IC50 [2, 8]: 31.1 µM; RMAX of ACE2-RBD binding [3]: 0.2344; ACE2-RBD binding versus inhibitor concentration (in words) [3]: concentration-dependent decrease; inhibition at 50 µM [3]: 23%; IC50 (VSV-SARS2; [9]): < 10 µM; inhibition at 10 µM (VSV-SARS2; [9]): ≥ 50%; IC50 (VSV-SARS2): 7.1 µM

Question: With `Cc1ccc(Nc2nccc(N(C)c3ccc4c(C)n(C)nc4c3)n2)cc1S(N)(=O)=O` [Pazopanib] as the compound, how does the inhibition (SARS-CoV-2 M^pro [1]; [7]) read?
Answer: -0.955%

Question: For `CO[C@H]1C[C@H](O[C@H]2CC[C@]3(C)[C@H]4CC[C@]5(C)[C@@H](C6=CC(=O)OC6)CC[C@]5(O)[C@@H]4CC[C@]3(O)C2)O[C@H](C)[C@H]1O[C@@H]1O[C@H](CO)[C@@H](O)[C@H](O)[C@H]1O` [Periplocin], which “Normalized Percent FRET inhibition” value (SARS-CoV-2 M^pro [1]; [10]) is on record?
Answer: -1.536%

Question: With `COc1ccc2nc3cc(Cl)ccc3c(Nc3cc(CN4CCCC4)c(O)c(CN4CCCC4)c3)c2n1` [Pyronaridine] as the compound, how does the inhibition (SARS-CoV-2 M^pro [1]; [7]) read?
Answer: -8.33%

Question: With `CNC(=O)c1cnn(-c2nc(N)c3ncn([C@@H]4O[C@H](CO)[C@@H](O)[C@H]4O)c3n2)c1` [Regadenoson] as the compound, how does the “Normalized Percent FRET inhibition” value (SARS-CoV-2 M^pro [1]; [10]) read?
Answer: -0.1877%

Question: For `Cc1cc(/C=C/C#N)cc(C)c1Nc1ccnc(Nc2ccc(C#N)cc2)n1` [Rilpivirine], which inhibition (SARS-CoV-2 M^pro [1]; [7]) is on record?
Answer: 5.87%

Question: With `Cc1nc2n(c(=O)c1CCN1CCC(c3noc4cc(F)ccc34)CC1)CCCC2` [Risperidal] as the compound, how does the “Normalized Percent FRET inhibition” value (SARS-CoV-2 M^pro [1]; 100 µM) read?
Answer: -1.672

Question: With `C=CC[N+]1([C@H]2C[C@H]3[C@@H]4CC[C@H]5C[C@H](O)[C@@H](N6CCOCC6)C[C@]5(C)[C@H]4CC[C@]3(C)[C@H]2OC(C)=O)CCCC1` [Rocuronium bromide] as the compound, how does the inhibition (SARS-CoV-2 M^pro [1]; [7]) read?
Answer: 11.3%

Question: With `Cc1cncc(CN2CCC(=C3c4ccc(Cl)cc4CCc4cccnc43)CC2)c1.O=C(O)/C=C/C(=O)O` [Rupatadine Fumarate] as the compound, how does the “Normalized Percent FRET inhibition” value (SARS-CoV-2 M^pro [1]; [10]) read?
Answer: -2.415%

Question: With `C[C@@H]1O[C@@H](OC[C@H]2O[C@@H](Oc3c(-c4ccc(O)c(O)c4)oc4cc(O)cc(O)c4c3=O)[C@H](O)[C@@H](O)[C@@H]2O)[C@H](O)[C@H](O)[C@H]1O` [Rutin] as the compound, how does the inhibition (SARS-CoV-2 M^pro [1]; [7]) read?
Answer: -0.554%

Question: For `CC(C)(C)NC(=O)[C@@H]1C[C@@H]2CCCC[C@@H]2CN1C[C@@H](O)[C@H](Cc1ccccc1)NC(=O)[C@H](CC(N)=O)NC(=O)c1ccc2ccccc2n1` [Saquinavir], which inhibition (SARS-CoV-2 M^pro [1]; [7]) is on record?
Answer: -1.34%

Question: With `COc1ccc2c(O[C@@H]3C[C@H]4C(=O)N[C@]5(C(=O)NS(=O)(=O)C6CC6)C[C@H]5/C=C\CCCCN(C)C(=O)[C@@H]4C3)cc(-c3nc(C(C)C)cs3)nc2c1C` [Simeprevir] as the compound, how does the inhibition (SARS-CoV-2 M^pro [1]; [7]) read?
Answer: 72.9%

Question: For `CC(C)OC(=O)[C@H](C)N[P@](=O)(OC[C@H]1O[C@@H](n2ccc(=O)[nH]c2=O)[C@](C)(F)[C@@H]1O)Oc1ccccc1` [Sofosbuvir], which inhibition (SARS-CoV-2 M^pro [1]; [7]) is on record?
Answer: -0.4%

Question: For `C=CC[C@@H]1/C=C(\C)C[C@H](C)C[C@H](OC)[C@H]2O[C@@](O)(C(=O)C(=O)N3CCCC[C@H]3C(=O)O[C@H](/C(C)=C/[C@@H]3CC[C@@H](O)[C@H](OC)C3)[C@H](C)[C@@H](O)CC1=O)[C@H](C)C[C@@H]2OC` [Tacrolimus], which inhibition (SARS-CoV-2 M^pro [1]; [7]) is on record?
Answer: -0.417%

Question: With `Cc1nc(C)c2c(n1)N(Cc1ccc(-c3ccccc3-c3nnn[nH]3)cc1)C(=O)CC2` [Tasosartan] as the compound, how does the inhibition (SARS-CoV-2 M^pro [1]; [7]) read?
Answer: -1.96%

Question: Which results are given for `CN(C)[C@@H]1C(O)=C(C(N)=O)C(=O)[C@@]2(O)C(O)=C3C(=O)c4c(O)cccc4[C@@](C)(O)[C@H]3C[C@@H]12` [Tetracycline]?
Answer: IC50 (SARS-CoV-2 M^pro [5]): 38.2 µM; inhibition (SARS-CoV-2 M^pro [1]; [7]): 40.3%; IC50 (SARS-CoV-2 M^pro [1]): 20.8 µM; inhibition of the activity of Mpro in secondary screen (SARS-CoV-2 M^pro [1]): completely inhibit

Question: With `CN(C)c1cc(NC(=O)CNC(C)(C)C)c(O)c2c1C[C@H]1C[C@H]3[C@H](N(C)C)C(O)=C(C(N)=O)C(=O)[C@@]3(O)C(O)=C1C2=O` [Tigecycline] as the compound, how does the IC50 (SARS-CoV-2 M^pro [5]) read?
Answer: 29 µM

Question: And the inhibition (SARS-CoV-2 M^pro [1]; [7])?
Answer: 56.5%

Question: And the IC50 (SARS-CoV-2 M^pro [1])?
Answer: 21.5 µM and 20.5 µM

Question: What about the “inhibition of the activity of Mpro” value (SARS-CoV-2 M^pro [1]) of the same compound?
Answer: completely inhibit

Question: Which “Normalized Percent FRET inhibition” value (SARS-CoV-2 M^pro [1]; [10]) does the source give for `CC(=O)Nc1cccc(-n2c(=O)n(C3CC3)c(=O)c3c(Nc4ccc(I)cc4F)n(C)c(=O)c(C)c32)c1.C[S+](C)[O-]` [Trametinib DMSO solvate] here?
Answer: 1.516%

Question: With `CC(=O)O[C@H]1C[C@@H]2CC[C@@H]3[C@H](CC[C@@]4(C)[C@H]3C[C@H]([N+]3(C)CCCCC3)[C@@H]4OC(C)=O)[C@@]2(C)C[C@@H]1N1CCCCC1` [Vecuronium bromide] as the compound, how does the inhibition (SARS-CoV-2 M^pro [1]; [7]) read?
Answer: 4.13%

Question: For `CCOC(=O)N[C@@H]1CC[C@@H]2[C@@H](C1)C[C@H]1C(=O)O[C@H](C)[C@H]1[C@H]2/C=C/c1ccc(-c2cccc(F)c2)cn1` [Vorapaxar], which inhibition (SARS-CoV-2 M^pro [1]; [7]) is on record?
Answer: -0.416%

Question: For `COc1cc(C(=O)NS(=O)(=O)c2ccccc2C)ccc1Cc1cn(C)c2ccc(NC(=O)OC3CCCC3)cc12` [Zafirlukast], which inhibition (SARS-CoV-2 M^pro [1]; [7]) is on record?
Answer: 3.83%

Question: With Eptifibatide acetate as the compound, how does the “Normalized Percent FRET inhibition” value (SARS-CoV-2 M^pro [1]; [10]) read?
Answer: 2.056%

Question: For Ginkgolide C, which “Normalized Percent FRET inhibition” value (SARS-CoV-2 M^pro [1]; [10]) is on record?
Answer: -0.7419%

Question: With Hyaluronic acid as the compound, how does the “Normalized Percent FRET inhibition” value (SARS-CoV-2 M^pro [1]; [10]) read?
Answer: -2.844%

Question: For Ivermectin, which “Normalized Percent FRET inhibition” value (SARS-CoV-2 M^pro [1]; [10]) is on record?
Answer: -0.9158%

Question: Which “Normalized Percent FRET inhibition” value (SARS-CoV-2 M^pro [1]; [10]) does the source give for Maraviroc here?
Answer: -2.69%
